According to patent US20230087844A1, “USE OF N2-QUINCLINE OR ISOQUINOLINE SUBSTITUTED PURINE DERIVATIVES IN CANCER TREATMENT” (SHANGHAI HUAYU BIOTECHNOLOGY CO., LTD., priority 2020, published 2023):
Marks after values point to notes of the source that are not given here.

Legend:
[1] = test system: SGC-7901 human gastric cancer cells; experiment: SGC-7901 gastric cancer xenograft in mice; conditions: D0, 3, 6, 9, 12; for T/C: D18
Experimental: Mice body weights and tumor sizes were measured 2 to 3 times a week. The tumor volume (V) was calculated as (length× width^2)/2. T/C (%) was calculated as (T-T0)/(C-C0)×100, wherein T and C represented the tumor volumes in the administration group and the vehicle group respectively at the end of the experiment, while T0 and C0 represented the tumor volumes in the administration group and the vehicle group respectively at the beginning of the experiment. And RTV was calculated as (Tumor volume at Day N/Tumor volume at Day 0).
BALB/cA-nude mice, 5-6 weeks old, purchased from Shanghai SLAC Laboratory Animal Co., Ltd, were subcutaneously inoculated with SGC-7901 human gastric cancer cells (from Cell Bank, Chinese Academy of Sciences).
Mice body weights and tumor sizes were measured 2 to 3 times a week. The tumor volume, T/C and RTV were calculated as described above. Mice were sacrificed on Day 18.

U87 = experiment: MTT tumor cell proliferation, U87; format: cell-based; conditions: Homo sapiens, U-87 MG; U87, Brain glioma, 72 hour
Experimental: (§1) as an exemplary compound of formula (I), was tested for its inhibitory effect on tumor cell proliferation in a MTT assay.
(§2) Briefly, cells at the log phase were collected, suspended in the cell culture medium at 4*10^4/ml density, and plated in 96-well plates, 90 μl per well. The plates were kept in a 5% CO2 and 37° C. incubator for 2 hours, and then added with 100 μg/ml, 10 μg/ml, 1 μg/ml, 0.1 μg/ml, 0.01 μg/ml or 0.001 μg/ml Compound A, 4 replicates for each cell at each compound concentration. DMSO was used in the positive control group, and another negative group was also set. After 72 hour incubation in the same incubator, 20 μl 5 mg/ml MTT reagent was added to each well. After another 4 hour incubation, each well was added with 100 μl SDS and further incubated for 12 hours. Absorbance at 570 nm was read in a reader, and IC50 was calculated.

MCF-7 = experiment: MTT tumor cell proliferation, MCF-7; format: cell-based; conditions: Homo sapiens, MCF7; MCF-7, Breast cancer, 72 hour
Experimental: as §1, §2

K562 = experiment: MTT tumor cell proliferation, K562; format: cell-based; conditions: Homo sapiens; K562, Chronic myeloid leukemia, 72 hour
Experimental: as §1, §2

H69 = experiment: Tumor cell death by MTT, H69; format: cell-based, human; conditions: 20 nM
Experimental: The in vitro inhibitory effect of Compound A alone or in combination with a PARP inhibitor on tumor cell growth was tested using human small cell lung cancer (SCLC) cell lines, including H69 (ATCC® HTB-119™), H526 (ATCC® CRL-5811™) and H446 (TCHu196, National Collection of Authenticated Cell Cultures).
Briefly, the cells were seeded into a 96-well dish with RPMI-1640 (10-040-CV, Coming cellgro) containing 10% fetal bovine serum (10270-106, GIBCO), 1% penicillin and 1% streptomycin (BaSalMedia, S110JV), at an initial density of 3×10^3 cells per well ([…]), and cultured at a 37° C., 5% CO2 humidified incubator for 24 hours. Then, the culture media were added with Compound A (final concentration at 20 nM), olaparib (APEXBIO, A4154, a PARP inhibitor, final concentration at 10 μM), Compound A + olaparib (final concentrations at20 nM and 10 μM), or PBS (vehicle), respectively, and the cells were cultured for 48 hours. Then, cell viability was determined by MTT. The test was done in triplicate.
Cell death rate was calculated by the following formula.
Cell death rate=[1−(ODtest-ODvehicle)]×100%
Cell death rates were analyzed using student's t-test, and group differences were deemed statistically significant when the p-value was lower than 0.05. Zheng-Jun Jin's Q value was calculated using the formula Q=EA+B/(EA+EB-EA×EB) to assess the combined effect of Compound A and the PARP inhibitor, wherein EA+B, EA, and EB referred to the cell death rates caused by the combined treatment, Compound A treatment and PARP inhibitor treatment, respectively. A Q value higher than 1.15 meant a synergistic […] effect.
Another PARP inhibitor, rucaparib (APEXBIO, A4156), was tested alone or with Compound A for inhibitory effect on tumor cell growth, following the protocol of Example 9.

MV-4-11 cells = experiment: MV-4-11 AML xenograft in mice (Example 7); format: in vivo, BALB-cA nude mice; conditions: D0-20; for Complete remission: number of mice, N 6
Experimental: Mice body weights and tumor sizes were measured twice a week. The tumor volume, T/C and TGI (Tumor growth inhibition=(average tumor volume in vehicle group-average tumor volume in administration group)/average tumor volume in vehicle group ×100%) were calculated. Mice were sacrificed on Day 21.

RS 4;11 = experiment: MTT tumor cell proliferation, RS 4;11; format: cell-based; conditions: Homo sapiens, RS4-11; RS 4;11, Acute lymphocytic leukemia, 72 hour
Experimental: as §1, §2

PDGFR = experiment: Inhibition of PDGFR phosphorylation; format: biochemical
Description: FLT3 is a class III receptor tyrosine kinase and plays an important role in hematopoiesis and lymphocyte development. […] Wang et al found over 60% of 82 leukemia cell lines were FLT3 positive (Wang Y et al., (2006) Journal of Experimental Hematology 14(3): 446-449). FLT3-internal tandem duplication (ITD) is the most commonly seen mutation in AML patients, with about 17-34% of AML patients carrying such a mutation (Jia H et al., (2018) Medical Laboratory Science and Clinics 19(5): 39). […] Thus, the compounds of the disclosure with high inhibitory effect on FLT3 function may be good candidates for leukemia treatment.

H441 = experiment: MTT tumor cell proliferation, H441; format: cell-based; conditions: Homo sapiens, NCI-H441; H441, Lung cancer, 72 hour
Experimental: as §1, §2

[2] = test system: Colon26 murine colon cancer cells; experiment: Colon26 colon cancer growth in mice; format: in vivo, F1 mice; conditions: D1-7; for TGI / Tumor weight: Day 8
Experimental: F1 mice, 18-22 g, purchased from Shanghai Bi-Kai Laboratory Animal Co., Ltd, were subcutaneously inoculated with Colon26 murine colon cancer cells (from Cell Bank, Chinese Academy of Sciences) at the right axilla. […] Tumor growth inhibition (TGI) was calculated.

SMILES: c1cnc2ccc(Nc3nc(NC4CC4)c4nc[nH]c4n3)cc2c1 [Compound A]
- RTV at D18 ([1]; 15 mg/kg P.O.): 5.57 ± 2.74
- Tumor volume D0 ([1]; 15 mg/kg P.O.): 162 ± 32 mm^3
- Tumor volume D18 ([1]; 15 mg/kg P.O.): 845 ± 349 mm^3
- T/C ([1]; 15 mg/kg P.O.): 68.2%
- RTV at D18 ([1]; 30 mg/kg P.O.): 3.73 ± 1.16
- Tumor volume D0 ([1]; 30 mg/kg P.O.): 197 ± 45 mm^3
- Tumor volume D18 ([1]; 30 mg/kg P.O.): 701 ± 142 mm^3
- T/C ([1]; 30 mg/kg P.O.): 45.7* %
- RTV at D18 ([1]; 60 mg/kg P.O.): 2.58 ± 1.07
- Tumor volume D0 ([1]; 60 mg/kg P.O.): 215 ± 49 mm^3
- Tumor volume D18 ([1]; 60 mg/kg P.O.): 545 ± 233 mm^3
- T/C ([1]; 60 mg/kg P.O.): 31.6* %
- IC50 (U87): 9.7 ± 7 µM
- IC50 (MCF-7): 26.5 ± 7.7 µM
- IC50 (K562): 1.2 ± 0.1 µM
- Cell Death Rate/% 1 (H69; 48 hours, Table 10): 6.75%
- Cell Death Rate/% 2 (H69; 48 hours, Table 10): 6.48%
- Cell Death Rate/% 3 (H69; 48 hours, Table 10): 6.31%
- Cell Death Rate/% mean (H69; 48 hours, Table 10): 6.51%
- Cell Death Rate/% 1 (H69; Example 10, Table 11): 7.36%
- Cell Death Rate/% 2 (H69; Example 10, Table 11): 7.65%
- Cell Death Rate/% 3 (H69; Example 10, Table 11): 7.02%
- Cell Death Rate/% mean (H69; Example 10, Table 11): 7.34%
- T/C (%) D21 (MV-4-11 cells; 30 mg/kg P.O.): 28%
- TGI (%) D21 (MV-4-11 cells; 30 mg/kg P.O.): 72%
- Tumor volume D0 (MV-4-11 cells; 30 mg/kg P.O.): 77.6 ± 3.4 mm^3
- Tumor volume D21 (MV-4-11 cells; 30 mg/kg P.O.): 279.2 ± 71.8 mm^3
- Complete remission (MV-4-11 cells; 30 mg/kg P.O.): 0
- T/C (%) D21 (MV-4-11 cells; 60 mg/kg P.O.): 0%
- TGI (%) D21 (MV-4-11 cells; 60 mg/kg P.O.): 100%
- Tumor volume D0 (MV-4-11 cells; 60 mg/kg P.O.): 79.3 ± 2.6 mm^3
- Tumor volume D21 (MV-4-11 cells; 60 mg/kg P.O.): 76.6 ± 46.2 mm^3
- Complete remission (MV-4-11 cells; 60 mg/kg P.O.): 3
- IC50 (RS 4;11): 0.4 ± 0.1 µM
- EC50 (PDGFR): ~1 µM
- IC50 (H441): 15.9 ± 9.5 µM
- Body weight (without tumor) at D8 ([2]; 30 mg/kg P.O.): 21.57 g
- TGI ([2]; 30 mg/kg P.O.): 31.88%
- Tumor weight ([2]; 30 mg/kg P.O.): 1.39 g
- Body weight (without tumor) at D8 ([2]; 60 mg/kg P.O.): 15.96 g
- TGI ([2]; 60 mg/kg P.O.): 76.12%
- Tumor weight ([2]; 60 mg/kg P.O.): 0.49 g
